Drawing on ChEMBL document CHEMBL1201862, “PubChem BioAssay data set” (2004), this text covers AC50 and IC50 for three compounds.

One test deals with HEK293. In words: EBV LMP1 TES2 canonical NF-kB signalling blockers – cell-based, HEK293, luciferase, cherry-pick, dose response (AID 588343). To be noted: Homo sapiens. The test is classed as functional.
The nature of test [1]: reduction of Shn3 3'UTR-driven luciferase in osteoblasts – cell-based, Clone20 osteoblasts, firefly luciferase, cherry-picked, dose response (AID 624132).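 Also: firefly luciferase luminescence from reporter carrying the Shn3 3'UTR in osteoblasts.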 The test is classed as functional.
The nature of test [2]: non-specific 3'UTR reporter inhibition in Clone20-Shn3RL – cell-based, Renilla luciferase, cherry-picked, counter-screen for Shn3 inhibitor project, dose response (AID 624133). The test is classed as functional. In general terms: Counterscreens check selectivity or assay interference.
In a further test the target is T1, Protein skinhead-1 (Caenorhabditis elegans, UniProt P34707).
T1 sequence (P34707 whole entry): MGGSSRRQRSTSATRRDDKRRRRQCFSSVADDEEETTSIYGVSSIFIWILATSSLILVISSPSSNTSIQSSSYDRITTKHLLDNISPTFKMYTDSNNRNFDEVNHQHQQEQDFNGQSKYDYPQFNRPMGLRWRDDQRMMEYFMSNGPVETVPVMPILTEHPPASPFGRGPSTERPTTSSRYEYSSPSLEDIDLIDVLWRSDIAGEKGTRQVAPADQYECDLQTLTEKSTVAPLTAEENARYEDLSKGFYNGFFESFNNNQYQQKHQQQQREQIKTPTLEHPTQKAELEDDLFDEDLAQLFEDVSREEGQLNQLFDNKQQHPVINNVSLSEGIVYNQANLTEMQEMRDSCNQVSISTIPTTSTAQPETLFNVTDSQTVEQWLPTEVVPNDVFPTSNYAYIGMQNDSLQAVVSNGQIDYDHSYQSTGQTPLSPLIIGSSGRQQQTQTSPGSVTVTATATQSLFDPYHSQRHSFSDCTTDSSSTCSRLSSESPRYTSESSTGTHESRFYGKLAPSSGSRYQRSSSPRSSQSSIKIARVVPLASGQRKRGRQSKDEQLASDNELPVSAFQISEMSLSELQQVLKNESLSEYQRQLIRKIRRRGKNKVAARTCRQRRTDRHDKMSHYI
In kind it is functional.

In the next test the target is Cytochrome P450 2C9 (Homo sapiens, UniProt P11712).
Cytochrome P450 2C9, sequence (P11712 whole entry): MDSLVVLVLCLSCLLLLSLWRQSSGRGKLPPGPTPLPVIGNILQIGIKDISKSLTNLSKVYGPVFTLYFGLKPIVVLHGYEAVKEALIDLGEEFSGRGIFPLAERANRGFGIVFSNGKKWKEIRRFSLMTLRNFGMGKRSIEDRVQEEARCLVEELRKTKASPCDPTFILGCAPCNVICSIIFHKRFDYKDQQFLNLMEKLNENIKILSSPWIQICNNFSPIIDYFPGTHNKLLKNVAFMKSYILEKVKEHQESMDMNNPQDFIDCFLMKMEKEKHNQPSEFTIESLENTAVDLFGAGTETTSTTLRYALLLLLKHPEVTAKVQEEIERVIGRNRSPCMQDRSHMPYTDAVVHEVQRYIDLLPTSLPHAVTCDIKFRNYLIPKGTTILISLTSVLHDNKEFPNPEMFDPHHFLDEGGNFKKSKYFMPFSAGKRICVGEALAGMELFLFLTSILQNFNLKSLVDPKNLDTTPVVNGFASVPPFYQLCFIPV
Another test addresses T2, Caspase-3 (Homo sapiens, UniProt P42574).
T2 sequence (P42574 whole entry): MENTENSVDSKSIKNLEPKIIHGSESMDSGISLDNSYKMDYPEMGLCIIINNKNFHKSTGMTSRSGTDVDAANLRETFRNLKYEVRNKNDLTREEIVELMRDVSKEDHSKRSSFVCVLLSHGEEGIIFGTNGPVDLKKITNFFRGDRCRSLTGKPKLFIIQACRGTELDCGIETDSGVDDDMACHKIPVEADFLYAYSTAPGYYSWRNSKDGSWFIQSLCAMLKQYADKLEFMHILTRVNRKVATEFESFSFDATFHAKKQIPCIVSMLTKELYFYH
The test is classed as functional.

Test [3] addresses T3, Sentrin-specific protease 7 (Homo sapiens, UniProt Q9BQF6).
T3 sequence (Q9BQF6 whole entry): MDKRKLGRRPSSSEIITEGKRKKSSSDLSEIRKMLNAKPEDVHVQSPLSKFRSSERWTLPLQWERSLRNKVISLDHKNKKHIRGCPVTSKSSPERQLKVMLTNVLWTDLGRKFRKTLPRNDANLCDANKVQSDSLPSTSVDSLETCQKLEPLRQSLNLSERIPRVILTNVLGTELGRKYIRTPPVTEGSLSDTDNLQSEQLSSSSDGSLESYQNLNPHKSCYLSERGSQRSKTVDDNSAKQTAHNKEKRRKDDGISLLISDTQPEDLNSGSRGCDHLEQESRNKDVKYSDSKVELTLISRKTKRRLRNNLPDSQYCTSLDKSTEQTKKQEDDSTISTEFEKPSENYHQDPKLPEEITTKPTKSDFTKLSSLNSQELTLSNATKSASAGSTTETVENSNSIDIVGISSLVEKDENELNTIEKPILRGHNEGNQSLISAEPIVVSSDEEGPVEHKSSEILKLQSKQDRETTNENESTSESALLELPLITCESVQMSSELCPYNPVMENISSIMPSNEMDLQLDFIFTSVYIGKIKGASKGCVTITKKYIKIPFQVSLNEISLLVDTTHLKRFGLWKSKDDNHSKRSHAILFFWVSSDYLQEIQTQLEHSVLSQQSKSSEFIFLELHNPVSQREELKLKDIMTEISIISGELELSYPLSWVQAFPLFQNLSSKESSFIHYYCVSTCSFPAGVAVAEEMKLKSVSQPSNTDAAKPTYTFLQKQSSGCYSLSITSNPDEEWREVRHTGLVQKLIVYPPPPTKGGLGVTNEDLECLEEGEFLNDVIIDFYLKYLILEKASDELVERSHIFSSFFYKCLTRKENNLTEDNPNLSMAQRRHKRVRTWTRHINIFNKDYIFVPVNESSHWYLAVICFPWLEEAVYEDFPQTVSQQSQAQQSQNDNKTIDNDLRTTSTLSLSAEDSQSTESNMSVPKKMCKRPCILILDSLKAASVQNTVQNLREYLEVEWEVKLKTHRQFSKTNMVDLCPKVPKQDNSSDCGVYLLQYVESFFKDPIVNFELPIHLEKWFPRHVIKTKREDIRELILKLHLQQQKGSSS
In kind it is functional.

Test [4] has as its target T4, Sentrin-specific protease 6 (Homo sapiens, UniProt Q9GZR1).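 Also: Luminescence-based dose-response confirmatory assay of SENP6 inhibition, following up an ultra-high-throughput screen.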
T4 sequence (Q9GZR1 whole entry): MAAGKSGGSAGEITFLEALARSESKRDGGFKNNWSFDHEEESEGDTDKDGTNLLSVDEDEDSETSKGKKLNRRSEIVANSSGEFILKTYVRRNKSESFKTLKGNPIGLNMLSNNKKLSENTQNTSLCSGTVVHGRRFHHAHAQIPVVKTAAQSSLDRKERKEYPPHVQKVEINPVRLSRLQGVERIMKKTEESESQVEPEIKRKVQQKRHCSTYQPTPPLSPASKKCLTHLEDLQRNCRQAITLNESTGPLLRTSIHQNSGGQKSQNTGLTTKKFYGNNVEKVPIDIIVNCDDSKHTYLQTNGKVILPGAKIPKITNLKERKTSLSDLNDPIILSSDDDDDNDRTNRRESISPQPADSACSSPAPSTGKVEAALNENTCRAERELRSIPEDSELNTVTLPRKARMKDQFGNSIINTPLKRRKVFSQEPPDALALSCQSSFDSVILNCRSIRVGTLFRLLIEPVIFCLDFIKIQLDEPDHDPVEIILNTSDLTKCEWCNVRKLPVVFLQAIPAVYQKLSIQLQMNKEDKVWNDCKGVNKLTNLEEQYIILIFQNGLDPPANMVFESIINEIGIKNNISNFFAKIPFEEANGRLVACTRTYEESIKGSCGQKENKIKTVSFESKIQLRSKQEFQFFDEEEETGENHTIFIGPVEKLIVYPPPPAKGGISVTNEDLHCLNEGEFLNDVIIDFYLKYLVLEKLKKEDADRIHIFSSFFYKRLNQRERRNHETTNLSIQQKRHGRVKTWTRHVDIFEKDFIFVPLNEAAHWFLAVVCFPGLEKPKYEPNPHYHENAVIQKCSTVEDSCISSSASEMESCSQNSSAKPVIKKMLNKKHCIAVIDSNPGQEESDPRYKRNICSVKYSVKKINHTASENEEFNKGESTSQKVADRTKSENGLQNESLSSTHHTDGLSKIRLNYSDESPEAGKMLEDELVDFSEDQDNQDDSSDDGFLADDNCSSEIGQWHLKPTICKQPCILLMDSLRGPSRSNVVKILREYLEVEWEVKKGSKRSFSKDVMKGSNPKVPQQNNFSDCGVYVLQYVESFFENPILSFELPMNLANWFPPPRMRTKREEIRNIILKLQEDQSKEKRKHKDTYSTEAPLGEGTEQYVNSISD
In kind it is functional.

Test [5] has as its target T5, Sentrin-specific protease 8 (Homo sapiens, UniProt Q96LD8).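 Also: luminescence read-out of SENP8 inhibition, dose-response confirmation following an ultra-high-throughput screen.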
T5 sequence (Q96LD8 whole entry): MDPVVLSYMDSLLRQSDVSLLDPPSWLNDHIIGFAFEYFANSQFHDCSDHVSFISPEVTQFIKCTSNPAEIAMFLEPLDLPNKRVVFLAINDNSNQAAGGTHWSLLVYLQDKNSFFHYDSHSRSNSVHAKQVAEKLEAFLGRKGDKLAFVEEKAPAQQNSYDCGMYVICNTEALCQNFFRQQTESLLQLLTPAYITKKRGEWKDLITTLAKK
In kind it is functional.

By AC50 is commonly meant the concentration at which the activity in the assay is half-maximal. The term IC50 denotes the concentration that inhibits the measured activity by half.

Calls of active or inactive are those of the source.

As to `Cc1ccc(-c2nc3cccnc3o2)cc1NC(=O)COc1ccc(C(C)(C)C)cc1`, the results for the AC50 (with HEK293; in test [1]; in test [2]) were 36.3 µM (active), 10.8 µM (active) and 14.6 µM (active), respectively. For the same compound, the IC50 on Protein skinhead-1 is > 100 µM (inactive).

For the compound `Cc1cccc(CNc2ncnc3ccc(-c4ccoc4)cc23)c1`, the AC50 in the test with HEK293 was 35.1 µM (active); at Cytochrome P450 2C9, 1 µM (inconclusive).

As to `O=C(Nc1cccs1)Nc1ccccc1Br`, the IC50 was 20.3 µM (active) at Caspase-3, 8.26 µM (active) in test [3], 33.5 µM (active) in [4] and 57.6 µM (active) in test [5].
